Measured values reported in patent publication US20180036433A1, “COMPOUNDS FOR THE DIAGNOSIS OR TREATMENT OF DISORDERS ASSOCIATED WITH PROTEIN OR PEPTIDE OLIGOMERS” (Agency for Science, Technology and Research, priority 2014, published 2018).

Experiments:
[1] = target: monomers, oligomers and fibrils of Aβ (synthetic Aβ1-40) (Homo sapiens, UniProt P05067); assay: Fluorescence response to pre-formed Aβ monomers, oligomers and fibrils; format: binding; settings: dye 5 μM, Aβ 20 μM
[2] = target: Aβ1-40 on-fibril pathway oligomers (Homo sapiens, UniProt P05067); assay: Time-dependent Aβ fibril formation monitored by dye fluorescence; format: binding; settings: dye 5 μM, Aβ 20 μM, 37° C.
Sequence of Aβ1-40 on-fibril pathway oligomers (P05067 672-711): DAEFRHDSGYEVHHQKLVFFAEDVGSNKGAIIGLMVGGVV

Sequence of monomers, oligomers and fibrils of Aβ (synthetic Aβ1-40) (P05067 672-711): as above

## Cc1ccc2c(c1)sc(-c1ccc(N(C)C)cc1)[n+]2C.[Cl-] [ThT, Thioflavin T]
[1]
  fluorescence response to Aβ monomers, oligomers and fibrils: fluorescence response in the increasing order of freshly prepared Aβ monomers, followed by oligomer and fibrils
[2]
  fluorescence over the time course of Aβ fibril formation: reached a maximum fluorescence after about 1-day and plateaus
